According to US8609690B2, “Aryl- and heteroarylcarbonyl derivatives of substituted nortropanes, medicaments containing such compounds and their use” (Boehringer Ingelheim International GmbH, priority 2008, dated 2013):

Target: T1, 11β-HSD 1 (Homo sapiens, UniProt P28845)
T1 construct: detecting cortisol generated from cortisterone by human liver microsomes; from tissue; host or cells: human liver microsomes
Test: In vitro inhibition of 11β-HSD 1, HTRF detection of cortisol generated by human liver microsomes
Format: biochemical
Conditions: 1 μM test compound, 100% indicates no inhibition, zero or below zero indicates complete inhibition (relative to carbenoxolone)
Summary of the method: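 Human liver microsomes with test compound were incubated 1 h at 37 °C in Tris buffer, pH 6.0, with 200 μM NADPH and 80 nM cortisone. Cortisol formed was detected by competitive HTRF immunoassay (665/615 nm ratio) and calibrated against a cortisol standard curve. Values are activities at 1 μM compound relative to carbenoxolone, where 100% indicates no inhibition.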

T1 sequence (P28845 whole entry): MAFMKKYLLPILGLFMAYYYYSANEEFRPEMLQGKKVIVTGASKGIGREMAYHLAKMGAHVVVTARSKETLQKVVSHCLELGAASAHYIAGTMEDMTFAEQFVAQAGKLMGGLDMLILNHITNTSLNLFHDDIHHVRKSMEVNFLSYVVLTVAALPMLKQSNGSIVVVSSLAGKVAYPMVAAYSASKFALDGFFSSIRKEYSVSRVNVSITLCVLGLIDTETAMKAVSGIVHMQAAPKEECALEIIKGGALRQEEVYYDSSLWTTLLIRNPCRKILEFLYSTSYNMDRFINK

Compound	Inhibitory activity on 11β-HSD 1, % CTL [% CTL]
COc1cc(C(=O)N2[C@@H]3CC[C@H]2C[C@@H](c2ccc(F)cc2)C3)cc(OC)c1O [Example 181, endo-[3-(4-Fluoro-phenyl)-8-aza-bicyclo[3.2.1]oct-8-yl]-(4-hydroxy-3,5-dimethoxy-phenyl)-methanone]	18
endo-[3-(3,4-Difluoro-phenyl)-8-aza-bicyclo[3.2.1]oct-8-yl]-(2,3-dihydro-benzo[1,4]dioxin-6-yl)-methanone [Example 137]	16
